# Measured values: patent US20210402011A1, “A COMPOUND FOR THE DETECTION OF HNO IN BIOLOGICAL SYSTEMS” (COUNCIL. OF SCIENTIFIC AND INDUSTRIAL RESEARCH, priority 2016, published 2021)
# How the values were obtained:
# Hct116 cells [1] = assay: MTT assay towards live Hct116; format: cell-based
# Protocol: (§1) An MTT assay confirmed the non-toxic nature of probe ER-HNO towards live Hct116. Therefore, ER-HNO is tested as an imaging reagent for the detection of HNO in Hct116 colon cancer. The cells are incubated with probe ER-HNO (1 μM) for 15 min at 37° C. in acetonitrile-PBS buffer (0.2:99.8, v/v) at pH 7.2 and no intracellular fluorescence is observed.
# RAW 264.7 cells [2] = assay: CLSM imaging of HNO in RAW 264.7 cells; format: cell-based; settings: RAW 264.7, probe 1.0 μM 15 min 37° C., then AS
# Protocol: The toxicity of the probe molecule toward live RAW 264.7 macrophages cells and cytotoxicity assays confirmed the low toxicity of the probe. The results encouraged to explore the use of the probe as an imaging reagent for the intracellular detection of HNO in these macrophage cells. Cells in DMEM culture media are incubated with ER-HNO (1.0 μM) for 15 min at 37° C. and subsequently viewed under confocal laser scanning microscope (CLSM) using a 530 nm laser as an excitation source.
# RAW 264.7 cells were seeded on cover slips placed in 6 well plates. After 24 hours cells washed with DMEM medium then cells were treated with ER-HNO (1 μM) for 25 minutes. Cells were then washed thrice with culture medium and further treated with Angeli's salt (HNO donor) of different concentration for 30 min. After that cells were washed again with Phosphate Buffer Saline (3×PBS). Then cells were fixed with 4% PFA for 10 min. Again cells were washed thrice and then cover slips mounted using mounting medium. Nail paints was used to seal the coverslips mounted on the glass slides. Images were acquired by using Olympus FluoView FV-1000 Confocal Microscope.
# RAW 264.7 cells were seeded on Coverslips (22 mm×22 mm, 170±5 μm square Cover glasses) placed in 6-well plates in DMEM culture medium containing (10% FBS and 1% penicillin-streptomycin) for 24 h at 37° C. 5% CO2. […]
# RAW 264.7 cells [3] = assay: MTT assay, in vitro cytotoxicity on RAW 264.7 cells; format: cell-based
# Protocol: The in vitro cytotoxicity of ER-HNO on RAW 264.7 cells were determined by conventional MTT (3-(4, 5-Dimethylthiazol-2-yl)-2, 5-diphenyltetrazolium bromide) assay. RAW 264.7 cells (5×103) were seeded in each well of a 96 well plate and cultured in a 37° C. incubator supplied with 5% CO2. Cells were maintained in DMEM medium, supplemented with 10% Foetal Bovine Serum and 100 Units of Penicillin Streptomycin antibiotics. After 24 hours the cells were treated with different concentrations of the ER-HNO in triplicates for 24 hours. After the treatment, cells were added with […] of MTT reagent. The plate was then incubated for 4 hours at 37° C. 100 μl of Isopropyl Alcohol was added to each well. Optical density was measured at 570 nm using Multiskan Go (Thermo Scientific) to find the concentration of the cell inhibition. IC50 value has been calculated to be 90 μM.
# The formula used for the calculation of the MTT assay for evaluation of the cell viability was as follows:
# Cell viability (%)=(Means of absorbance value of treated group/Means of absorbance value of untreated control)×100.
# [4] = Fluorescence emission studies for HNO detection in aq. PBS buffer-CH3CN
# Protocol: The spectroscopic properties of ER-HNO in aq. PBS buffer medium under physiological pH medium. No significant difference is observed in the electronic spectra of ER-HNO and ER-S. In order to check the response of ER-HNO probe (10 uM) with in presence of 20 mole equivalent of various ROS and RNS (HNO, HOCl, H2O2, —OH, TBHP, NO3^−, NO2^−, benzoyl peroxide, S^2− and ascorbate) emission spectra are recorded in aq. […] A turn ON emission response is observed for probe ER-HNO, only in presence of HNO with λEms^Max=580 nm (λExt=530 nm). Moreover, no significant changes are observed in presence of different anionic, cationic as well as biothiols under identical experimental condition. The effects of pH on emission spectrum of probe ER-HNO is also investigated. […] Therefore, to explore the bio analytical application, all the studies are carried out at physiological pH medium.
# An enhancement in emission signal are observed at λMax=586 nm (Φ=0.105, for λExt=530 nm) with gradual increasing [HNO] (FIG. 1B). A good linearity is observed between emission intensity and concentration of HNO in the range of 2-15 uM, with a lower detection limit of 2 μM. […] PBS buffer medium.
# Stock solution of probe ER-HNO (1×10^−4M) was prepared in HPLC grade acetonitrile. All the analytes stock solution (1×10^−2M) was prepared in aqueous HEPES buffer (10 mM) medium at pH 7.2. […]
# Hct116 cells [5] = assay: CLSM imaging of HNO in Hct116 cells; format: cell-based; settings: Hct116, probe 1 μM 15 min, then HNO 20 μM
# Protocol: as §1
# For confocal studies, Hct116 cells (3×10^5) were seeded on cover slips placed in 6 well plates. After 24 hours, Hct116 cells were treated with ER-HNO (1 μM) for 30 minutes at 37° C. in a 5% CO2 air environment. Cells were then washed thrice with Phosphate Buffer (1×PBS) and fixed with 4% PFA for 20 minutes and washed again with IX PBS. Nail paint was used to seal the cover slips mounted on the glass slides for each well plates. Again Hct116 cells were pre-treated with ER-HNO (1 μM) for 15 minutes, then Hct116 cells were further expose to Angeli's salt (HNO donor), then cells were washed thrice with media and followed by incubation with ER-HNO (1 μM) for another 15 minutes under same conditions. Cells were again washed with 1×PBS buffer and fixed with 4% PFA for 20 minutes and washed again with 1×PBS. Confocal laser scanning microscopic (CLSM) images were acquired in Olympus Fluoview Microscope with λExt/λMon=530/573 nm.
# Artemia nauplii = assay: Fluorescence imaging of Artemia nauplii; format: in vivo; settings: probe 1 μM 30 minutes, then HNO
# Protocol: Imaging of Artemia nauplii by luminescence was performed using a fluorescence microscope with a 20×, 0.4 NA microscope objective (Olympus), coupled to an intensified CCD camera. The Artemia nauplii were imaged in both bright-field and epifluorescence geometries. The latter was enabled by a fluorescence filter set. The illumination intensity was about 10 W/mm^2.
# Hct116 cells [6] = assay: Flow cytometry, DCFDA staining; format: cell-based; settings: Angeli's salt 10 uM, 30 uM probe, 2 hrs
# Protocol: For DCFDA staining, HCT116 cells were cultured in DMEM medium containing 5 mM glucose supplemented with 10% FBS and 100 Units of antibiotics. Prior to the treatment processes, DMEM medium with 1% FBS was treated with N-Ethylmalemide (NEM) 1 mM and this medium was used to culture the cells further. Cells were treated with Angeli's salt 10 uM, L 30 uM or both for 2 hrs. After treatment cells were harvested by trypsinization and washed with complete DMEM media by centrifugation. Pellet was suspended in 1 ml of PBS buffer. 10 μM DCFDA (Sigma) was added to cells followed by incubation at 37° C. 5% CO2 incubator for 45 mins. DCFDA stained cells were analyzed in BD FACS Canto II using FITC channel. For Annexin V staining cultured HCT116 cells were harvested after trypsinization and washed with 1×PBS buffer. 500 ul of Annexin V binding buffer was used to re-suspend the cells. 5 ul of Annexin-V FITC antibody added to the re-suspended cell and incubated in dark for 5 mins. Antibody stained cells were then analyzed using BD Calibur FACs in FITC channel. The flow cytometry experiment confirmed that probe ER-HNO is capable of reducing RNS & ROS level induced by HNO [FIG. 5 (b)].
# SERCA2 = assay: Western blot monitoring of SERCA2; format: cell-based; settings: HCT116 cells, Angeli's salt 10 uM, ER-HNO 30 μM, 24 hrs
# Protocol: HCT116 cells were cultured in DMEM medium containing 10% Fetal Bovine Serum (FBS) supplemented with 100 Units of Penicillin Streptomycin antibiotics. Cells were treated with Angeli's salt 10 uM, ER-HNO 30 μM or both for 24 hrs. Prior to the treatment processes, DMEM medium was treated with N-Ethylmalemide (NEM) 1 mM and this medium was used to culture the cells. Post 24 hrs cells harvested and whole cell lysate proteins extracted. 40 ug of the proteins were resolved in SDS PAGE gel and transferred into PVDF membrane using Western Blot methods. The blot was over-night blocked with 5% Bovine Serum Albumin (BSA) at 4° C. 1:4000 dilution of SERCA2 antibody was to probe the blot for 2 hrs at room-temperature (RT). After three washes with 1×TBST, 1:4000 dilution of anti-rabbit HRP conjugated antibody was used to probe the blot for 1 hr at RT. After three washes with IX TBST, the blot was developed using auto-radiography in X-ray film.
substance,measurement,setting,value
"(E)-4-(2-(5,5-difluoro-1,7,9-trimethyl-10-phenyl-5H-5l4,6l4-dipyrrolo[1,2-c:2′,1′-f][1,3,2]diazaborinin-3-yl)vinyl)phenyl 2-(diphenylphosphanyl)benzoate [ER-HNO]",toxicity towards live Hct116 (MTT assay),Hct116 cells [1],non-toxic
same,intracellular fluorescence after exposure to AS,RAW 264.7 cells [2],strong intracellular fluorescence
same,IC50,"RAW 264.7 cells [3]; RAW 264.7 cells, 24 hours treatment, read-out: IC50 (MTT cell viability)",90 µM
same,toxicity toward live RAW 264.7 macrophages cells,RAW 264.7 cells [3]; cytotoxicity assays,low toxicity
same,emission intensity of the probe within pH range 4-10,[4]; pH 4-10,remains unaltered
same,change in emission intensity in presence of other ROS/RNS (selectivity),"[4]; probe 10 uM, 20 mole equivalent of HOCl, H2O2, OH, TBHP, NO3-, NO2-, benzoyl peroxide, S2-, ascorbate",no change in emission intensity
same,intracellular fluorescence after HNO exposure,Hct116 cells [5],strong intracellular fluorescence
same,fluorescence in Artemia nauplii on exposure to HNO,Artemia nauplii,strong fluorescence
same,RNS induced by Angeli's Salt (DCFDA staining),Hct116 cells [6],reduced
same,counteraction of the stabilized expression of SERCA2,SERCA2,at least 50%
